Several values for one entry are separate records, joined by “and”; a condition that tells them apart may be missing. Equal entries are not always repeated.
Assays:
[1] = test system: HIV-1 clinical isolate ADA in fresh human monocyte-macrophages; assay: Anti-HIV monocyte-macrophage assay (p24 ELISA); assay type: cell-based; conditions: for P-24 Activity: vs. ADA
Description: ELISA kits were purchased from Coulter. The assay is performed according to the manufacturer's recommendations. Prior to ELISA analysis, the reverse transcriptase activity assays were routinely performed and the values were used for incorporated radioactivity in the RT activity assay to determine the dilution of samples required for the ELISA. Control curves were generated in each assay to accurately quantititate the amount of capsid protein in each sample. Data was obtained by spectrophotometric analysis at 450 nm using a Molecular Devices Vmax plate reader. P24 concentrations were calculated from the optical density values by use of the Molecular Devices software package Soft Max.
For isolation of a adherent cells, 3×10^6 non-PHA stimulated peripheral blood cells were resuspended in Hanks buffered saline with calcium and magnesium supplemented with 10% human AB serum. The cells were placed in a 24-well microtiter plate at 37° C. for 2 hours. Non-adherent cells were removed by vigorously washing six times. The adherent cells were cultured for 7 days in RPM1 1640 tissue culture medium with 15% fetal bovine serum. The cultures were carefully monitored for confluency during this incubation period. Infection of the cells was performed with the monocytotropic HIV-1 strains BaL or ADA and the matched pair of AZT-sensitive and AZT-resistant virus isolates. Each of these virus isolates was obtained from the NLAID AIDS Research and Reference Reagent Program. High titer pools of each of these viruses have been harvested from infected cultures of peripheral blood adherent cells and frozen in 1.0 ml aliquots at −80° C. Monocyte-macrophage monolayers were infected at an MOI of 0.1. […] Compounds to be evaluated in the monocyte-macrophage assay were added to the monolayers shortly before infection in order to maximize the potential for identifying active compounds.
At two days post-infection, the medium was decanted and the cultures washed twice with complete medium in order to remove excess virus. Fresh medium alone or medium containing the appropriate concentration of drugs was added and incubation continued for an additional 5 days. XTT-tetrazolium or trypan blue exclusion assays for cell viability and HIV p24 ELISA assays for production of p24 core antigen were performed on Day 7 post-infection. ELISA kits were purchased from Coulter. Control curves were generated in each assay to accurately quantitate the amount of capsid protein in each sample. Data was obtained by spectrophotometric analysis at 450 nm using a Molecular Devices Vmax plate reader. P24 concentrations were calculated from the optical density values by use of the Molecular Device software package Soft Max.

[2] = test system: clinical HIV isolate ROJO in fresh human PBMCs; assay: PBMC/ROJO reverse transcriptase activity assay; assay type: cell-based; conditions: qualitative; PHA blastogenesis
Description: A microtiter based reverse transcriptase (RT) reaction was utilized. Tritiated thymidine triphosphate (NEN) (TTP) was resuspended in distilled H2O at 5 Ci/ml. Poly rA and oligo dT were prepared as a stock solution which was kept at −20° C. The RT reaction buffer was prepared fresh on a daily basis and consists of 125 μl MEGTA, 125 μl dH2O, 125 μl Triton X-100, 50 μl 1M Tris (pH 7.4), 50 μl MDTT, and 40 μl MMgCl2. These three solutions were mixed together in a ratio of 1 parts TTP, 2.5 parts poly rA:oligo dT, 2.5 parts reaction, the reaction buffer and 4 parts distilled water. Ten microliters of this reaction mixture was placed in a round bottom microtiter plate and 15 μl of virus containing supernatant was added and mixed. The plate was incubated at 37° C. and incubated for 60 minutes. […] Incorporated radioactivity was quantitated utilizing a Wallac Microbeta scintillation counter. […]
In the standard PBL assay (MOI: 0.2), the assay was ended on day 7 following collection of cell free supernatant samples for reverse transcriptase activity assay. In the low MOI PBL assay (MOI: 0.02), supernatant samples were collected on day 6, day 11, and day 14 post-infection and analyzed for […]. […]

[3] = cited from earlier work
[4] = test system: HSV-1; assay: In vitro HSV-1 plaque inhibition on fibroblasts; assay type: cell-based
Description: Laboratory testing was undertaken at the University Of Chicago, Clinical Microbiology Laboratories to determine inhibitory activity in vitro of the medical treatment and composition (medicine). The laboratory testing was conducted by the Associate Director, PhD, and Associate Professor of Pathology. […] It was stated by the pathologist, that they had tested “hundreds” of other compounds and had never seen anything as good as what this compound did. The following are the tests of the medicine that were conducted and results that were obtained at The University of Chicago. For ease of interpreting some of the scientific data and test results, the following definitions apply: • “MEM” pertains to Minimal Essential Medium. This is the culture medium used in laboratories for growing the cells upon which tests were run. • “Fibroblast” is a mesenchyme human cell (a cell found in connective tissue, blood, bone, lymphatics, and cartilage). • “IC50” pertains to the Inhibitory Concentrate. […] 1. Three 24-compartment plates were inoculated with fibroblasts. […] There were four control compartments on each plate containing MEM without drug. 2. The growth media was removed from the compartments and 200 ul of HSV-1 was added to each compartment of the upper half of each plate. HSV-1 was diluted 1:5000 (2.0 ul of stock HSV-1 in 10 mL of MEM). […] Also, 200 ul of HSV-2 was added to each compartment of the lower half of each plate. HSV-2 was diluted 1:2,000 (5.0 ul of stock HSV-2 in 10 mL of MEM). The virus titer was 6×10^5 per mL. 3. The plates were incubated at 37° C. for two hours. 4. The inoculum was removed and one mL of the MEM containing Drugs #1-3 were added to the four compartments. The concentration of the drug compared to the MEM is indicated below. 1. Three plates were used to screen the three drug preparations. […] There were four control compartments on each plate containing MEM without drug. 2. The growth media was removed from the compartments and 200 ul of HSV-1 was added to each compartment of the upper half of each plate. HSV-1 was diluted 1:5000 (2.0 ul of stock HSV-1 in 10 mL of MEM). […] 3. The plates were incubated at 37° C. for four hours. 4. The inoculum was removed and one mL of the MEM containing drugs #1A-3A were added to the four compartments. 1. Four plates were used to screen the four drug preparations. […] There were four control compartments on each plate containing MEM without drug. 2. The growth media was removed from the compartments and 200 ul of HSV-1 was added to each compartment of the upper two rows of each plate. HSV-1 was diluted 1:5000 (2.0 ul of stock HSV-1 in 10 mL of MEM). […] Also, 200 ul of HSV-2 was added to each compartment of the lower half of each plate. HSV-2 was diluted 1:2,000 (5.0 ul of stock HSV-2 in 10 mL of MEM). The virus titer was 6×10^5 per mL. 3. The plates were incubated at 37° C. for four hours. 4. The inoculum was removed and one mL of the MEM containing drugs #1-4 was added to the four compartments.

[5] = test system: HSV-2; assay: In vitro HSV-2 plaque inhibition on fibroblasts; assay type: cell-based
Description: Laboratory testing was undertaken at the University Of Chicago, Clinical Microbiology Laboratories to determine inhibitory activity in vitro of the medical treatment and composition (medicine). The laboratory testing was conducted by the Associate Director, PhD, and Associate Professor of Pathology. […] It was stated by the pathologist, that they had tested “hundreds” of other compounds and had never seen anything as good as what this compound did. The following are the tests of the medicine that were conducted and results that were obtained at The University of Chicago. For ease of interpreting some of the scientific data and test results, the following definitions apply: • “MEM” pertains to Minimal Essential Medium. This is the culture medium used in laboratories for growing the cells upon which tests were run. • “Fibroblast” is a mesenchyme human cell (a cell found in connective tissue, blood, bone, lymphatics, and cartilage). • “IC50” pertains to the Inhibitory Concentrate. […] Three 24-compartment plates were inoculated with fibroblasts. […] There were four control compartments on each plate containing MEM without drug. 2. The growth media was removed from the compartments and 200 ul of HSV-1 was added to each compartment of the upper half of each plate. […] Also, 200 ul of HSV-2 was added to each compartment of the lower half of each plate. […] The virus titer was 6×10^5 per mL. 3. The plates were incubated at 37° C. for two hours. 4. The inoculum was removed and one mL of the MEM containing Drugs #1-3 were added to the four compartments. The concentration of the drug compared to the MEM is indicated below. […] Four plates were used to screen the four drug preparations. […] There were four control compartments on each plate containing MEM without drug. 2. The growth media was removed from the compartments and 200 ul of HSV-1 was added to each compartment of the upper two rows of each plate. […] Also, 200 ul of HSV-2 was added to each compartment of the lower half of each plate. […] The virus titer was 6×10^5 per mL. 3. The plates were incubated at 37° C. for four hours. 4. The inoculum was removed and one mL of the MEM containing drugs #1-4 was added to the four compartments.

[6] = test system: transmission of virus from chronically infected H9 cells to ME180 cervical epithelial cells; assay: Topical microbicide assay (p24 ELISA); assay type: cell-based, HIV; conditions: qualitative
Description: MEI 180 cervical epithelial cells were plated in the interior walls of a 96-well flat bottom microtiter plate at a density of […] cells per well and incubated overnight. Chronically infected H9 cells wee treated with 200 μg/ml mitomycin C in complete medium for one hour, washed extensively and resuspended at 4×10^5 per ml. […] Antiviral compounds and chronically infected cells (2×10^4) were added to each well containing ME180 cells and incubated for 6 hours. Following co-cultivation the monolayer was washed extensively and fresh medium added. Medium was removed and fresh medium added at 24 and 48 hours post-infection to remove dead lymphocytes. On day 6 post-infection, supernatant samples were removed and analyzed for virus content by p24 ELISA.

Compound: Cc1cn([C@H]2C[C@H](N=[N+]=[N-])[C@@H](CO)O2)c(=O)[nH]c1=O [AZT, zidovudine]
- activity in monocyte-macrophages infected with ADA ([1]; qualitative): expected level of activity
- P-24 Activity ([1]; 0.0004 μM): 1005.00 pg/mL and 1252.00 pg/mL and 954.10 pg/mL and 1097.00 pg/mL and 1160.00 pg/mL and 1098.00 pg/mL
- P-24 Activity ([1]; 0.0014 μM): 919.00 pg/mL and 1150.00 pg/mL and 678.70 pg/mL and 821.90 pg/mL and 594.80 pg/mL and 983.10 pg/mL
- P-24 Activity ([1]; 0.004 μM): 470.80 pg/mL and 660.90 pg/mL and 912.30 pg/mL and 914.90 pg/mL and 891.20 pg/mL and 499.20 pg/mL
- inhibition of replication of isolate ROJO in fresh human PBMCs [2]: expected level of activity

Compound: OCc1ccccc1 [Benzyl alcohol]
- solubility in water [3]: 4 g/100 mL

Compound: Benzalkonium chloride [Drug #1A]
- plaques ([4]; HSV-1, 1:2): toxic
- plaques ([4]; HSV-1, 1:4): toxic
- plaques ([4]; HSV-1, 1:8): toxic
- plaques ([4]; HSV-1, 1:16): toxic
- plaques ([4]; HSV-1, 1:32): toxic

Compound: Benzalkonium chloride [Drug #1B]
- plaques ([5]; HSV-2, 1:20): toxic
- plaques ([5]; HSV-2, 1:40): toxic
- plaques ([5]; HSV-2, 1:80): toxic
- plaques ([5]; HSV-2, 1:160): toxic
- Average plaques ([5]; HSV-2, 1:320): 19
- plaques ([5]; HSV-2, 1:320): 21 and 17
- plaques ([4]; HSV-1, 1:20): toxic
- plaques ([4]; HSV-1, 1:40): toxic
- plaques ([4]; HSV-1, 1:80): toxic
- plaques ([4]; HSV-1, 1:160): toxic
- plaques ([4]; HSV-1, 1:320): 15?* and 18?*

Compound: Dextran sulfate
- activity in topical microbicide assay [6]: expected level of activity

Compound: dextran
- activity in topical microbicide assay [6]: expected level of activity

Source: patent US9662360B2, “Treatment of herpes, pseudomonas, staph, and hepatitis” (priority 2008, dated 2017)
